Measurements: patent publication US10301317B2, “Inhibitors of ERK and methods of use” (Kura Oncology, Inc., priority 2013, dated 2019)
pIC50: −log10 of the molar value.

Legend:
Format in all cases: cell-based
[1] = system: phospho-p90 RSK (RSK1 Thr359/Ser363) in A375 (Braf V600E) cells; assay: Phospho-p90 RSK ELISA using A375 (Braf V600E) cells; settings: Homo sapiens, A-375, 2 hours compound treatment, read-out: Cellular Phospho-p90RSK IC50
A375 cells = assay: Tumor cell line proliferation assay (CellTiter Glo), A375; settings: Homo sapiens, A-375, 96 h, read-out: A375 (V599E) Cell Proliferation IC50
WM-266-4 cells = assay: Tumor cell line proliferation assay (CellTiter Glo), WM-266-4; settings: Homo sapiens, 96 hours, read-out: WM-266-4 (V599D) Cell Proliferation IC50
H358 (Kras, G12C) cells = assay: Tumor cell line proliferation assay (CellTiter Glo), H358; settings: Homo sapiens, NCI-H358, 96 hours

pIC50 [1] | pIC50 (A375 cells) | pIC50 (WM-266-4 cells) | pIC50 (H358 (Kras, G12C) cells) | SMILES
≥ 6.60 | ≥ 6.60 | ≥ 6.60 |  | O=C1Nc2cc3[nH]nc(-c4ccncc4)c3cc2CN1Cc1cccc(Cl)c1 [Example 3]
6.00 to 6.60 | 6.00 to 6.60 | 6.00 to 6.60 |  | Cc1cc(-c2n[nH]c3cc4[nH]c(=O)c(Cc5ccc(F)cc5)cc4cc23)ccn1 [Example 21]
6.00 to 6.60 | < 6.00 | 6.00 to 6.60 |  | COc1ncccc1CN1Cc2cc3c(-c4ccnc(C)c4)n[nH]c3cc2NC1=O [Example 9]
< 6.00 | < 6.00 | < 6.00 |  | Cc1cc(-c2n[nH]c3cc4[nH]c(=O)n(CCc5ccccc5)c4cc23)ccn1 [Example 20]
6.00 to 6.60 | < 6.00 | < 6.00 |  | Cc1cc(-c2n[nH]c3cc4[nH]c(=O)n(Cc5ccccc5)c4cc23)ccn1 [Example 19]
≥ 6.60 | 6.00 to 6.60 | ≥ 6.60 |  | Cc1cc(-c2n[nH]c3cc4c(cc23)CN(Cc2ccc(C(F)(F)F)cc2)C(=O)N4)ccn1 [Example 12]
≥ 6.60 | 6.00 to 6.60 | 6.00 to 6.60 |  | Cc1cc(-c2n[nH]c3cc4c(cc23)CN(Cc2ccc(F)c(F)c2)C(=O)N4)ccn1 [Example 13]
≥ 6.60 | 6.00 to 6.60 |  | 6.00 to 6.60 | Cc1cc(-c2n[nH]c3cc4c(cc23)CN([C@@H]2CCCN(CC(F)(F)F)C2)C(=O)N4)ccn1 [Example 193]
≥ 6.60 | 6.00 to 6.60 |  | 6.00 to 6.60 | Cc1cc(-c2n[nH]c3cc4c(cc23)CN([C@@H]2CCCN(C(C)c3cccc(Cl)c3)C2)C(=O)N4)ccn1 (stereo partly drawn) [Example 180]
≥ 6.60 | ≥ 6.60 |  | ≥ 6.60 | Cc1cc(-c2n[nH]c3cc4c(cc23)CN([C@@H]2CCN(Cc3ccccc3)C2)C(=O)N4)ccn1 [Example 146]
≥ 6.60 | 6.00 to 6.60 | ≥ 6.60 |  | Cc1cc(-c2n[nH]c3cc4c(cc23)CN(Cc2ccc(F)c(Cl)c2)C(=O)N4)ccn1 [Example 8]
≥ 6.60 | 6.00 to 6.60 | ≥ 6.60 |  | Cc1cc(-c2n[nH]c3cc4c(cc23)CN(Cc2ccc(F)cc2F)C(=O)N4)ccn1 [Example 11]
6.00 to 6.60 | < 6.00 | < 6.00 |  | Cc1cc(-c2n[nH]c3cc4c(cc23)CN(C2(c3ccc(F)cc3)CC2)C(=O)N4)ccn1 [Example 17]
≥ 6.60 | 6.00 to 6.60 |  | ≥ 6.60 | Cc1cc(-c2n[nH]c3cc4c(cc23)CN([C@@H]2CCN(Cc3c(F)cccc3F)C2)C(=O)N4)ccn1 [Example 147]
≥ 6.60 | ≥ 6.60 |  | ≥ 6.60 | Cc1cc(-c2n[nH]c3cc4c(cc23)CN([C@@H]2CCCN(Cc3c(F)cccc3F)C2)C(=O)N4)ccn1 [Example 143]
≥ 6.60 | 6.00 to 6.60 |  | 6.00 to 6.60 | O=C1Nc2cc3[nH]nc(-c4cncnc4)c3cc2CN1Cc1cccc(Cl)c1 [Example 123]
≥ 6.60 | 6.00 to 6.60 | 6.00 to 6.60 |  | Cc1cc(-c2n[nH]c3cc4c(cc23)CN([C@H](C)c2ccccc2)C(=O)N4)ccn1 [Example 2, (R)-3-(2-methylpyridin-4-yl)-6-(1-phenylethyl)-5,6-dihydro-1H-pyrazolo[4,3-g]quinazolin-7(8H)-one]
≥ 6.60 | 6.00 to 6.60 |  | 6.00 to 6.60 | Cc1cc(-c2n[nH]c3cc4c(cc23)CN([C@@H]2CCCN(Cc3csc(C)n3)C2)C(=O)N4)ccn1 [Example 140]
6.00 to 6.60 | < 6.00 |  | 6.00 to 6.60 | Cc1cc(-c2n[nH]c3cc4c(cc23)CN(Cc2ccc(C#N)cc2)C(=O)N4)ccn1 [Example 39]
≥ 6.60 | ≥ 6.60 |  | ≥ 6.60 | [2H]c1c([2H])c([2H])c(C([2H])([2H])N2CCC[C@@H](N3Cc4cc5c(-c6ccnc(C)c6)n[nH]c5cc4NC3=O)C2)c([2H])c1[2H] [Example 165]
≥ 6.60 | ≥ 6.60 | ≥ 6.60 |  | Cc1cc(-c2n[nH]c3cc4[nH]c(=O)c(C(C)c5ccccc5)cc4cc23)ccn1 (stereo not drawn) [Example 22]
≥ 6.60 | 6.00 to 6.60 |  | 6.00 to 6.60 | Cn1cc(-c2n[nH]c3cc4c(cc23)CN(Cc2ccc(F)c(Cl)c2)C(=O)N4)ccc1=O [Example 41]
≥ 6.60 | ≥ 6.60 |  | ≥ 6.60 | Cc1cc(-c2n[nH]c3cc4c(cc23)CN([C@@H]2CCN(CC(F)(F)F)C2)C(=O)N4)ccn1 [Example 214]
≥ 6.60 | ≥ 6.60 |  | ≥ 6.60 | Cc1cc(-c2n[nH]c3cc4c(cc23)CC(C(C)c2cccc(Cl)c2)C(=O)N4)ccn1 (stereo not drawn) [Example 181]
≥ 6.60 | ≥ 6.60 |  | ≥ 6.60 | COc1ncc(-c2n[nH]c3cc4c(cc23)CN([C@@H]2CCCN(Cc3c(F)cccc3F)C2)C(=O)N4)cn1 [Example 102]
< 6.00 | < 6.00 |  | < 6.00 | Cc1cc(-c2n[nH]c3cc4c(cc23)CN([C@@H]2CCCNC2)C(=O)N4)ccn1 [Example 32]

pIC50 [1] | pIC50 (A375 cells) | pIC50 (WM-266-4 cells) | pIC50 (H358 (Kras, G12C) cells) | SMILES
≥ 6.60 | 6.00 to 6.60 | ≥ 6.60 |  | COc1ccc(CN2Cc3cc4c(-c5ccnc(C)c5)n[nH]c4cc3NC2=O)cc1 [Example 10]
≥ 6.60 | 6.00 to 6.60 | ≥ 6.60 |  | Cc1cc(-c2n[nH]c3cc4c(cc23)CN(Cc2cc(F)cc(F)c2)C(=O)N4)ccn1 [Example 7]
≥ 6.60 | 6.00 to 6.60 |  | < 6.00 | Cc1cc(-c2n[nH]c3cc4c(cc23)CN([C@H](CO)c2cccc(Cl)c2)C(=O)N4)ccn1 [Example 26]
≥ 6.60 | ≥ 6.60 | ≥ 6.60 |  | Cc1cc(-c2n[nH]c3cc4c(cc23)CN(Cc2cccc(Cl)c2)C(=O)N4)ccn1 [Example 4]
≥ 6.60 | 6.00 to 6.60 | < 6.00 |  | Cc1cc(-c2n[nH]c3cc4c(cc23)CN([C@H](C)c2ccc(C#N)cc2)C(=O)N4)ccn1 [Example 23]
≥ 6.60 | 6.00 to 6.60 |  | 6.00 to 6.60 | Cn1cc(-c2n[nH]c3cc4c(cc23)CN(Cc2ccc(F)c(Cl)c2)C(=O)N4)cn1 [Example 31]
≥ 6.60 | 6.00 to 6.60 |  | 6.00 to 6.60 | Cc1cc(-c2n[nH]c3cc4c(cc23)CN(Cc2ccc(F)cc2)C(=O)N4)ccn1 [Example 30]
≥ 6.60 | 6.00 to 6.60 |  | 6.00 to 6.60 | Cc1cc(-c2n[nH]c3cc4c(cc23)CN([C@@H]2CCCN(Cc3cccnc3C(F)(F)F)C2)C(=O)N4)ccn1 [Example 161]
6.00 to 6.60 | 6.00 to 6.60 |  | < 6.00 | Cc1cc(-c2n[nH]c3cc4c(cc23)CN([C@@H]2CCCN(CCC(C)(C)C)C2)C(=O)N4)ccn1 [Example 136]
≥ 6.60 | 6.00 to 6.60 | 6.00 to 6.60 |  | Cc1cc(-c2n[nH]c3cc4c(cc23)CN(Cc2ccc(Cl)cc2)C(=O)N4)ccn1 [Example 14]
6.00 to 6.60 | 6.00 to 6.60 |  | 6.00 to 6.60 | Cc1cc(-c2n[nH]c3cc4c(cc23)CN([C@@H]2CCCN(Cc3cc(C)no3)C2)C(=O)N4)ccn1 [Example 139]
≥ 6.60 | ≥ 6.60 |  | ≥ 6.60 | Cc1cc(-c2n[nH]c3cc4[nH]c(=O)c([C@H](C)c5ccccc5)cc4cc23)ccn1 [Example 84]
≥ 6.60 | 6.00 to 6.60 |  | 6.00 to 6.60 | COc1ncc(-c2n[nH]c3cc4c(cc23)CN(Cc2ccc(F)cc2F)C(=O)N4)cn1 [Example 99]
≥ 6.60 | ≥ 6.60 |  | ≥ 6.60 | COc1cccc(F)c1CN1CCC[C@@H](N2Cc3cc4c(-c5ccnc(C)c5)n[nH]c4cc3NC2=O)C1 [Example 144]
≥ 6.60 | ≥ 6.60 |  | 6.00 to 6.60 | Cc1cc(-c2n[nH]c3cc4c(cc23)CN(Cc2cccc(Cl)c2)C(=O)N4)cc(C)n1 [Example 77]
6.00 to 6.60 | < 6.00 | < 6.00 |  | Cc1cc(-c2n[nH]c3cc4[nH]c(=O)n(Cc5ccc(F)c(Cl)c5)c(=O)c4cc23)ccn1 [Example 15]
≥ 6.60 | 6.00 to 6.60 |  | 6.00 to 6.60 | Cc1cc(-c2n[nH]c3cc4c(cc23)CN([C@@H]2CCCN(Cc3cc(F)cc(F)c3)C2)C(=O)N4)ccn1 [Example 163]
6.00 to 6.60 | < 6.00 |  | < 6.00 | Cc1cc(-c2n[nH]c3cc4c(cc23)CN(Cc2cscn2)C(=O)N4)ccn1 [Example 47]
6.00 to 6.60 | < 6.00 | 6.00 to 6.60 |  | Cc1cc(-c2n[nH]c3cc4c(cc23)CN([C@H](C)c2ccc(F)cc2)C(=O)N4)ccn1 [Example 5]
≥ 6.60 | 6.00 to 6.60 | 6.00 to 6.60 |  | Cc1cc(-c2n[nH]c3cc4c(cc23)CN(CCc2ccc(F)cc2)C(=O)N4)ccn1 [Example 18]
< 6.00 | < 6.00 |  | < 6.00 | Cc1cc(-c2n[nH]c3cc4c(cc23)CN(C2CN(Cc3cc(F)cc(F)c3)CC(F)(F)C2)C(=O)N4)ccn1 (stereo not drawn) [Example 202]
≥ 6.60 | ≥ 6.60 | ≥ 6.60 | ≥ 6.60 | O=C1Nc2cc3[nH]nc(-c4ccncc4)c3cc2CN1Cc1ccccc1 [Example 1, 6-benzyl-3-(pyridin-4-yl)-1,5,6,8-tetrahydro-7H-pyrazolo[4,3-g]quinazolin-7-one]
 | < 6.00 | < 6.00 |  | Cc1cc(-c2n[nH]c3cc4[nH]c(=O)n(Cc5cccc(Cl)c5)c(=O)c4cc23)ccn1 [Example 24]
≥ 6.60 | ≥ 6.60 |  | 6.00 to 6.60 | Cc1cc(-c2n[nH]c3cc4c(cc23)CN([C@@H]2CCCN(Cc3ccc(F)c(Cl)c3)C2)C(=O)N4)ccn1 [Example 134]
≥ 6.60 | 6.00 to 6.60 |  | 6.00 to 6.60 | Cc1cc(-c2n[nH]c3cc4c(cc23)CN([C@@H]2CCCN(c3ccc(F)cn3)C2)C(=O)N4)ccn1 [Example 199]
